Like-named read-outs stand apart in the source and are kept apart here.
Legend:
[1] = test system: L. donovani; details: mice; Wyllie, Sci Transl. Med 4, 119, 2012; cited from earlier work
[2] = Excretion and metabolites of labeled FEX; type: in vivo
Source text: (§1) Toxicology summary. In mice and rats, the maximum fexinidazole (FEX) dose after oral administration is 10 g/kg of body weight. […] Finally, as regards PK, labeled FEX and its metabolites were excreted within 3 days in the feces (52-58%) and urine (36-40%).

[3] = Reproductive toxicity study, rats; type: in vivo; details: oral 200 mg/kg for 10 days
Source text: as §1

[4] = Reproductive toxicity study, rabbits; type: in vivo; details: oral 40 mg/kg for 13 days
Source text: as §1

[5] = test system: chromosome damage; test: Chromosome damage in vitro or in vivo
Source text: as §1

[6] = Multiple dosing study in dogs: systemic exposure (plasma) to fexinidazole and its metabolites; type: in vivo, dog; details: for concentration at 0 h / concentration at 0.5 h / concentration at 1 h / concentration at 2 h / concentration at 4 h / concentration at 8 h / concentration at 24 h / Cmax / Tmax / AUC(0-t): dog, plasma; for concentration at 0 h / concentration at 0.5 h / concentration at 1 h / concentration at 2 h / concentration at 4 h / concentration at 8 h / concentration at 24 h: oral, read-out: Average plasma concentrations of fexinidazole; for concentration at 2 h: Day 1, 2 hours; for concentration at 4 h: Day 1, 4 hours; for concentration at 8 h: Day 1, 8 hours; for concentration at 24 h: Day 1, 24 hours; for Cmax / Tmax / AUC(0-t): po; for AUC(0-t): read-out: AUC0-t (last)
Procedure: In an embodiment, the fexinidazole may be administered to the canine as an aqueous oral suspension, comprising 5% TWEEN 80 and 0.5% Methyl cellulose 400 cP (METHOCEL). Provided in this format, fexinidazole suspensions of 5, 20, and 80 mg fexinidazole/mL may be prepared such that 10 mL of each concentration contains 50, 200, and 800 mg fexinidazole, respectively.
Moreover, inventors expect that a wide variety of dosing regimens are now available to the skilled person to achieve the necessary and sufficient fexinidazole plasma levels. For example, and as further outlined in the Examples below, any dosing regimen that produces substantially similar fexinidazole plasma levels, as compared to those levels produced by giving the dogs about 60 mg/kg/day for about twenty-eight days, is expected to substantially or completely eliminate the Leishmania parasites. Table 1 presents the systemic fexinidazole exposure following dosing of dogs with 50, 200, and 800 mg/kg/day.

[7] = Toxicology summary: maximum dose after oral administration, rats; type: in vivo
Source text: as §1

[8] = labeled FEX and its metabolites, within 3 days
[9] = 50 mg/kg/day, 50 mg/kg/day oral
[10] = 200 mg/kg/day, 200 mg/kg/day oral
[11] = female, 50 mg/kg/day, Female Dog, 50 mg/kg/day oral, D1, mean ± SD, n = 3
[12] = female, 50 mg/kg/day, Female Dog, 50 mg/kg/day oral, D14, mean ± SD, n = 3
[13] = female, 50 mg/kg/day, Female Dog, 50 mg/kg/day oral, D28, mean ± SD, n = 3
[14] = female, 200 mg/kg/day, Female Dog, 200 mg/kg/day oral, D1, mean ± SD, n = 3
[15] = female, 200 mg/kg/day, Female Dog, 200 mg/kg/day oral, D14, mean ± SD, n = 3
[16] = female, 200 mg/kg/day, Female Dog, 200 mg/kg/day oral, D28, mean ± SD, n = 3
[17] = female, 800 mg/kg/day, Female Dog, 800 mg/kg/day oral, D1, mean ± SD, n = 5
[18] = female, 800 mg/kg/day, Female Dog, 800 mg/kg/day oral, D14, mean ± SD, n = 5
[19] = female, 800 mg/kg/day, Female Dog, 800 mg/kg/day oral, D28, mean ± SD, n = 5
[20] = male, 50 mg/kg/day, Male Dog, 50 mg/kg/day oral, D1, mean ± SD, n = 3
[21] = male, 50 mg/kg/day, Male Dog, 50 mg/kg/day oral, D14, mean ± SD, n = 3
[22] = male, 50 mg/kg/day, Male Dog, 50 mg/kg/day oral, D28, mean ± SD, n = 3
[23] = male, 200 mg/kg/day, Male Dog, 200 mg/kg/day oral, D1, mean ± SD, n = 3
[24] = male, 200 mg/kg/day, Male Dog, 200 mg/kg/day oral, D14, mean ± SD, n = 3
[25] = male, 200 mg/kg/day, Male Dog, 200 mg/kg/day oral, D28, mean ± SD, n = 3
[26] = male, 800 mg/kg/day, Male Dog, 800 mg/kg/day oral, D1, mean ± SD, n = 5
[27] = male, 800 mg/kg/day, Male Dog, 800 mg/kg/day oral, D14, mean ± SD, n = 5
[28] = male, 800 mg/kg/day, Male Dog, 800 mg/kg/day oral, D28, mean ± SD, n = 5

Which results are given for `CSc1ccc(OCc2ncc([N+](=O)[O-])n2C)cc1` [Fexinidazole, fexinidazole]?
suppression of infection due to L. donovani [1]: able to suppress infection; time to excretion of labeled FEX and its metabolites ([2]; feces and urine): ≤ 3 days; main metabolites ([2]; in vivo): the sulfoxide, the sulfone, and the corresponding phenolic fragments; excretion in the feces [2, 8]: 52-58%; excretion in the urine [2, 8]: 36-40%; embryotoxic effects [3]: no embryotoxic effects; embryotoxic effects [4]: no embryotoxic effects; chromosome damage [5]: does not induce chromosome damage; Average plasma concentrations of fexinidazole ([6]; 50 mg/kg/day oral, Day 14, 2 hours): 26.8 ng/mL; Average plasma concentrations of fexinidazole ([6]; 50 mg/kg/day oral, Day 14, 4 hours): ~9 ng/mL; Average plasma concentrations of fexinidazole ([6]; 50 mg/kg/day oral, Day 14, 8 hours): <5 ng/mL; Average plasma concentrations of fexinidazole ([6]; 50 mg/kg/day oral, Day 14, 24 hours): <5 ng/mL; Average plasma concentrations of fexinidazole ([6]; 50 mg/kg/day oral, Day 28, 0 hours): <5 ng/mL; Average plasma concentrations of fexinidazole ([6]; 50 mg/kg/day oral, Day 28, 1 hour): 28.3 ng/mL; Average plasma concentrations of fexinidazole ([6]; 50 mg/kg/day oral, Day 28, 2 hours): 17.5 ng/mL; Average plasma concentrations of fexinidazole ([6]; 50 mg/kg/day oral, Day 28, 4 hours): 14.3 ng/mL; Average plasma concentrations of fexinidazole ([6]; 50 mg/kg/day oral, Day 28, 8 hours): ~5 ng/mL; Average plasma concentrations of fexinidazole ([6]; 50 mg/kg/day oral, Day 28, 24 hours): <5 ng/mL; Average plasma concentrations of fexinidazole ([6]; 200 mg/kg/day oral, Day 14, 2 hours): 70.2 ng/mL; Average plasma concentrations of fexinidazole ([6]; 200 mg/kg/day oral, Day 14, 4 hours): 27.6 ng/mL; Average plasma concentrations of fexinidazole ([6]; 200 mg/kg/day oral, Day 14, 8 hours): 13.5 ng/mL; Average plasma concentrations of fexinidazole ([6]; 200 mg/kg/day oral, Day 14, 24 hours): 10.2 ng/mL; Average plasma concentrations of fexinidazole ([6]; 200 mg/kg/day oral, Day 28, 0 hours): <5 ng/mL; Average plasma concentrations of fexinidazole ([6]; 200 mg/kg/day oral, Day 28, 1 hour): 65.4 ng/mL; Average plasma concentrations of fexinidazole ([6]; 200 mg/kg/day oral, Day 28, 2 hours): 44.6 ng/mL; Average plasma concentrations of fexinidazole ([6]; 200 mg/kg/day oral, Day 28, 4 hours): 23.5 ng/mL; Average plasma concentrations of fexinidazole ([6]; 200 mg/kg/day oral, Day 28, 8 hours): 12.4 ng/mL; Average plasma concentrations of fexinidazole ([6]; 200 mg/kg/day oral, Day 28, 24 hours): 12.4 ng/mL; concentration at 0 h ([6]; 50 mg/kg/day, 50 mg/kg/day oral, Day 1, 0 hours): < 5 ng/mL; concentration at 0.5 h ([6]; 50 mg/kg/day, 50 mg/kg/day oral, Day 1, 0.5 hours): 34.5 ng/mL; concentration at 1 h ([6]; 50 mg/kg/day, 50 mg/kg/day oral, Day 1, 1 hour): 30.3 ng/mL; concentration at 2 h [6, 9]: 23.8 ng/mL; concentration at 4 h [6, 9]: 12.6 ng/mL; concentration at 8 h [6, 9]: < 5 ng/mL; concentration at 24 h [6, 9]: < 5 ng/mL; concentration at 0 h ([6]; 50 mg/kg/day, 50 mg/kg/day oral, Day 14, 0 hours): < 5 ng/mL; concentration at 0.5 h ([6]; 50 mg/kg/day, 50 mg/kg/day oral, Day 14, 0.5 hours): 28.8 ng/mL; concentration at 1 h ([6]; 50 mg/kg/day, 50 mg/kg/day oral, Day 14, 1 hour): 29.5 ng/mL; concentration at 0 h ([6]; 200 mg/kg/day, 200 mg/kg/day oral, Day 1, 0 hours): < 5 ng/mL; concentration at 0.5 h ([6]; 200 mg/kg/day, 200 mg/kg/day oral, Day 1, 0.5 hours): 52.1 ng/mL; concentration at 1 h ([6]; 200 mg/kg/day, 200 mg/kg/day oral, Day 1, 1 hour): 61.3 ng/mL; concentration at 2 h [6, 10]: 45.9 ng/mL; concentration at 4 h [6, 10]: 22.6 ng/mL; concentration at 8 h [6, 10]: 9.9 ng/mL; concentration at 24 h [6, 10]: 13 ng/mL; concentration at 0 h ([6]; 200 mg/kg/day, 200 mg/kg/day oral, Day 14, 0 hours): 16.6 ng/mL; concentration at 0.5 h ([6]; 200 mg/kg/day, 200 mg/kg/day oral, Day 14, 0.5 hours): 53.4 ng/mL; concentration at 1 h ([6]; 200 mg/kg/day, 200 mg/kg/day oral, Day 14, 1 hour): 63.2 ng/mL; Metabolism ([6]; dogs, after single and repeated administration): extensively metabolized to the sulfone and sulfoxide derivatives; Cmax [6, 11]: 42.4 ± 10.6 ng/mL; Tmax [6, 11]: 1 ± 0.87 h; AUC(0-t) [6, 11]: 237 ± 105 ng·h/mL; Cmax [6, 12]: 41.9 ± 2.2 ng/mL; Tmax [6, 12]: 1.67 ± 0.58 h; AUC(0-t) [6, 12]: 246 ± 117 ng·h/mL; Cmax [6, 13]: 36.3 ± 15.1 ng/mL; Tmax [6, 13]: 1 h; AUC(0-t) [6, 13]: 87.1 ± 38.1 ng·h/mL; Cmax [6, 14]: 84.1 ± 36.7 ng/mL; Tmax [6, 14]: 1 h; AUC(0-t) [6, 14]: 454 ± 119 ng·h/mL; Cmax [6, 15]: 77.7 ± 50.8 ng/mL; Tmax [6, 15]: 2 h; AUC(0-t) [6, 15]: 443 ± 217 ng·h/mL; Cmax [6, 16]: 73 ± 12 ng/mL; Tmax [6, 16]: 1 h; AUC(0-t) [6, 16]: 377 ± 83.5 ng·h/mL; Cmax [6, 17]: 184 ± 75.6 ng/mL; Tmax [6, 17]: 1.2 ± 0.45 h; AUC(0-t) [6, 17]: 895 ± 437 ng·h/mL; Cmax [6, 18]: 152 ± 44 ng/mL; Tmax [6, 18]: 1.4 ± 0.55 h; AUC(0-t) [6, 18]: 1170 ± 309 ng·h/mL; Cmax [6, 19]: 101 ± 47.1 ng/mL; Tmax [6, 19]: 1 h; AUC(0-t) [6, 19]: 956 ± 378 ng·h/mL; Cmax [6, 20]: 31.2 ± 12.4 ng/mL; Tmax [6, 20]: 0.5 h; AUC(0-t) [6, 20]: 140 ± 147 ng·h/mL; Cmax [6, 21]: 26.5 ± 13 ng/mL; Tmax [6, 21]: 0.5 h; AUC(0-t) [6, 21]: 52.1 ± 29.4 ng·h/mL; Cmax [6, 22]: 20.3 ± 7.89 ng/mL; Tmax [6, 22]: 1 h; AUC(0-t) [6, 22]: 124 ± 67 ng·h/mL; Cmax [6, 23]: 54.9 ± 10.8 ng/mL; Tmax [6, 23]: 1 ± 0.87 h; AUC(0-t) [6, 23]: 419 ± 61.4 ng·h/mL; Cmax [6, 24]: 78.1 ± 23.5 ng/mL; Tmax [6, 24]: 1 ± 0.87 h; AUC(0-t) [6, 24]: 452 ± 41.1 ng·h/mL; Cmax [6, 25]: 57.9 ± 12.5 ng/mL; Tmax [6, 25]: 1 h; AUC(0-t) [6, 25]: 395 ± 15.8 ng·h/mL; Cmax [6, 26]: 100 ± 21.2 ng/mL; Tmax [6, 26]: 1.1 ± 0.55 h; AUC(0-t) [6, 26]: 776 ± 182 ng·h/mL; Cmax [6, 27]: 128 ± 56.9 ng/mL; Tmax [6, 27]: 1 h; AUC(0-t) [6, 27]: 929 ± 268 ng·h/mL; Cmax [6, 28]: 86.2 ± 38.5 ng/mL; Tmax [6, 28]: 1.2 ± 0.4 h; AUC(0-t) [6, 28]: 736 ± 141 ng·h/mL; maximum dose after oral administration [7]: 10 g/kg of body weight

— patent US9585871B2, “Method for treating and curing leishmaniosis using fexinidazole” (Merial Limited, priority 2013, dated 2017)
